This is an account of results in patent publication US9505762B2, “Purine derivatives as CB2 receptor agonists” (Hoffmann-La Roche Inc., priority 2013, dated 2016).

One assay concerns the target human CB1 receptors (Homo sapiens (Human), UniProt P21554). Briefly: functional cAMP assay, CB1. It is filed as cell-based. The conditions noted are these: CHO cells expressing human CB1.
For the next assay, the target named is human CB2 receptors (Homo sapiens (Human), UniProt P34972). The experiment in a line: functional cAMP assay, CB2. It is filed as cell-based. The note with it: CHO cells expressing human CB2. For orientation: Cyclic AMP is a second messenger, typically raised through Gs and lowered through Gi signalling.

As a reminder, the EC50 is the concentration giving half of the maximal effect.

Chain of human CB2 receptors (P34972 whole entry): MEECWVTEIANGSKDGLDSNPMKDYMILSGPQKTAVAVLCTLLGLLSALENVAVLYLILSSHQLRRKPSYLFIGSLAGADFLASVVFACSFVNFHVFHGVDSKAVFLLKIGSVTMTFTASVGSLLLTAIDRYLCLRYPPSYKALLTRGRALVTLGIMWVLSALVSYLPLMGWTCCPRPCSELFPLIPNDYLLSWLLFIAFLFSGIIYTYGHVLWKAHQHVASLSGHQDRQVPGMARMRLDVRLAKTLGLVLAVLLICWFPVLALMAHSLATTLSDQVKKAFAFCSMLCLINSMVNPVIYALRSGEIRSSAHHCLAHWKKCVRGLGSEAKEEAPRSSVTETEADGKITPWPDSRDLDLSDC
Chain of human CB1 receptors (P21554 whole entry): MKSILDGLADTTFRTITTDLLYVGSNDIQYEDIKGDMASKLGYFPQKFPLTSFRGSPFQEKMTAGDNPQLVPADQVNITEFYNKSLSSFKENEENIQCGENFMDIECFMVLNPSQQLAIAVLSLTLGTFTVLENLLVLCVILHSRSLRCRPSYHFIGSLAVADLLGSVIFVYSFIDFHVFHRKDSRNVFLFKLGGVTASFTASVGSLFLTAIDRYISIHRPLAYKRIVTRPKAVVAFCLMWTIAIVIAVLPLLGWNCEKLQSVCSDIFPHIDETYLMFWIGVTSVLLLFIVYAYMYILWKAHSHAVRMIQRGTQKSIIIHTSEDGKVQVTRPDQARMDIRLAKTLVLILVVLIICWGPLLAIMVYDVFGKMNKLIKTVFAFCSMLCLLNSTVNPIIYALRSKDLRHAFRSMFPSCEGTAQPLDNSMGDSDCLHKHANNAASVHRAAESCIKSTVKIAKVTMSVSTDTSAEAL

Take `Cc1noc(Cn2cnc3c(N4CC(F)(F)C(F)(F)C4)nc(C(C)(C)C)nc32)n1` [Example 80, 5-[[2-tert-butyl-6-(3,3,4,4-tetrafluoropyrrolidin-1-yl)purin-9-yl]methyl]-3-methyl-1,2,4-oxadiazole]: the EC50 on human CB1 receptors was > 10000 nM; at human CB2 receptors it was 179 nM.
In the case of `CC(C)(C)COc1nc(N2CC3(COC3)C2)c2ncn(Cc3ccccc3Cl)c2n1` [Example 143, 6-[9-[(2-chlorophenyl)methyl]-2-(2,2-dimethylpropoxy)purin-6-yl]-2-oxa-6-azaspiro[3.3]heptane], the concentration giving a half-maximal response (EC50) on human CB1 receptors was > 10000 nM; on human CB2 receptors it was 268 nM.
For the compound `CC(C)(C)c1nc(N2CCC(O)C2)c2ncn(Cc3ccccc3C(F)(F)F)c2n1` (stereo not drawn) [Example 28, 1-[2-tert-butyl-9-[[2-(trifluoromethyl)phenyl]methyl]purin-6-yl]pyrrolidin-3-ol], the half-maximal effective concentration (EC50) was > 10000 nM on human CB1 receptors and 1 nM at human CB2 receptors.
With `Cc1nonc1Cn1cnc2c(N3CCC[C@@H]3C#N)nc(C(C)(C)C)nc21` [Example 148, (2R)-1-[2-tert-butyl-9-[(4-methyl-1,2,5-oxadiazol-3-yl)methyl]purin-6-yl]pyrrolidine-2-carbonitrile], the half-maximal effective concentration (EC50) was > 10000 nM at human CB1 receptors and 15.7 nM at human CB2 receptors.
Regarding `CC1(O)CCN(c2nc(NC(C)(C)C)nc3c2ncn3Cc2ccccc2C(F)(F)F)C1` (stereo not drawn) [Example 121, 1-[2-(tert-butylamino)-9-[[2-(trifluoromethyl)phenyl]methyl]purin-6-yl]-3-methylpyrrolidin-3-ol], the results for the EC50 at human CB1 receptors and at human CB2 receptors were > 10000 nM and 41.3 nM, respectively.
The corresponding values for `CC(C)(C)c1nc(N2CC[C@H](O)C2)c2ncn(Cc3cccc(Cl)c3)c2n1` [Example 87, (3S)-1-[2-tert-butyl-9-[(3-chlorophenyl)methyl]purin-6-yl]pyrrolidin-3-ol] are > 10000 nM and 2.1 nM.
On to `Cc1nonc1Cn1cnc2c(N3CCC(F)(F)C3)nc(C(C)(C)C)nc21` [Example 16, 3-[[2-tert-butyl-6-(3,3-difluoropyrrolidin-1-yl)purin-9-yl]methyl]-4-methyl-1,2,5-oxadiazole], for which the EC50 at human CB1 receptors is > 10000 nM; on human CB2 receptors it was 6 nM.
As for `CC(C)(C)c1nc(N2CC[C@H](O)C2)c2ncn(Cc3n[nH]cc3C(F)(F)F)c2n1` [Example 100, (3S)-1-[2-tert-butyl-9-[[4-(trifluoromethyl)-1H-pyrazol-3-yl]methyl]purin-6-yl]pyrrolidin-3-ol], the half-maximal effective concentration (EC50) is > 10000 nM on human CB1 receptors and 6.6 nM at human CB2 receptors.
Take `CC(C)(C)COc1nc(N2CCC(C)(O)C2)c2ncn(Cc3ccccc3C(F)(F)F)c2n1` (stereo not drawn) [Example 132, 1-[2-(2,2-dimethylpropoxy)-9-[[2-(trifluoromethyl)phenyl]methyl]purin-6-yl]-3-methylpyrrolidin-3-ol]: the EC50 at human CB1 receptors is > 10000 nM; at human CB2 receptors, 22.1 nM.
As to `CC(C)(C)Nc1nc(N2CCC(F)(F)C2)c2ncn(Cc3ccccc3Cl)c2n1` [Example 107, N-tert-butyl-9-[(2-chlorophenyl)methyl]-6-(3,3-difluoropyrrolidin-1-yl)purin-2-amine], the results for the 50% effective concentration (EC50) at human CB1 receptors and at human CB2 receptors were > 10000 nM and 8.1 nM, respectively.
The corresponding values for `CC(C)(C)c1nc(N2CCC3(COC3)C2)c2ncn(Cc3ccccc3S(C)(=O)=O)c2n1` [Example 60, 7-[2-tert-butyl-9-[(2-methylsulfonylphenyl)methyl]purin-6-yl]-2-oxa-7-azaspiro[3.4]octane] are > 10000 nM and 175 nM.
The corresponding values for `CC(=O)N[C@H]1CCN(c2nc(C(C)(C)C)nc3c2ncn3Cc2ccccc2S(C)(=O)=O)C1` [Example 52, N—[(S)-1-[2-tert-butyl-9-[(2-methylsulfonylphenyl)methyl]purin-6-yl]pyrrolidin-3-yl]acetamide] are > 10000 nM and 229 nM.
